# Assay results: US8921267B2, “Safening 6-(trisubstituted phenyl)-4-amino-2-pyridinecarboxylate herbicide injury on cereal crops” (Dow AgroSciences LLC, priority 2008, dated 2014)
# Legend:
# [1] = tested on: wheat (Triticum aestivum L; TRZAS); assay: Postemergence herbicidal safening, greenhouse, visual injury: wheat; assay type: in vivo
# Procedure: (§1) Evaluation of Postemergence Herbicidal Safening in Cereal Crops
# (§2) Seeds of the desired test plant species were planted in Sun Gro MetroMix® 306 planting mixture, which typically has a pH of 6.0 to 6.8 and an organic matter content of about 30 percent, in plastic pots with a surface area of 103.2 square centimeters (cm^2). When required to ensure good germination and healthy plants, a fungicide treatment and/or other chemical or physical treatment was applied. The plants were grown for 7-36 days (d) in a greenhouse with an approximate 14-hour (h) photoperiod which was maintained at about 18° C. during the day and 17° C. during the night. Nutrients and water were added on a regular basis and supplemental lighting was provided with overhead metal halide 1000-Watt lamps as necessary. The plants were employed for testing when they reached the second or third true leaf stage.
# (§3) Weighed amounts of esters (methyl) or salts (TEA [triethylammonium], K [potassium]) of 4-amino-3-chloro-6-(4-chloro-2-fluoro-3-methoxyphenyl)pyridine-2-carboxylic acid (Compound 1) were dissolved in a volume of 97:3 volume/volume (v/v) acetone/dimethylsulfoxide (DMSO) to obtain stock solutions. […] The concentrated stock solutions were diluted with an aqueous mixture of 1.5% v/v of Agri-dex crop oil concentrate to provide the appropriate application rates. Compound requirements are based upon a 12 mL application volume at a rate of 187 liters per hectare (L/ha). Stocks solutions of the safeners were prepared following the same procedure. Spray solutions of the safeners and experimental compound mixtures were prepared by adding the stock solutions to the appropriate amount of dilution solution to form a 12 mL spray solution with active ingredients in two-way combinations. Formulated compounds were applied to the plant material with an overhead Mandel track sprayer equipped with 8002E nozzles calibrated to deliver 187 L/ha over an application area of 0.503 square meters (m^2) at a spray height of 18 inches (43 centimeters (cm)) above average plant canopy. Control plants were sprayed in the same manner with the solvent blank.
# (§4) The treated plants and control plants were placed in a greenhouse as described above and watered by sub-irrigation to prevent wash-off of the test compounds. After 20-22 d, the condition of the test plants as compared with that of the control plants was determined visually and scored on a scale of 0 to 100 percent where 0 corresponds to no injury and 100 corresponds to complete kill.
# (§5) Colby's equation was used to determine the herbicidal effects expected from the mixtures (Colby, S. R. Calculation of the synergistic and antagonistic response of herbicide combinations. Weeds 1967, 15, 20-22.).
# (§6) The following equation was used to calculate the expected activity of mixtures containing two active ingredients, A and B: Expected=A+B−(A×B/100)
# (§7) A=observed efficacy of active ingredient A at the same concentration as used in the mixture.
# (§8) B=observed efficacy of active ingredient B at the same concentration as used in the mixture.
# [2] = tested on: barley (Hordeum vulgare L; HORVS); assay: Postemergence herbicidal safening, greenhouse, visual injury: barley; assay type: in vivo
# Procedure: as §1, §2, §3, §4, §5, §6, §7, §8
# [3] = tested on: scented mayweed (Matricaria chamomila L; MATCH); assay: Postemergence herbicidal activity, greenhouse, visual injury: scented mayweed; assay type: in vivo; set-up: key: % visual injury: 0 = no injury, 100 = complete kill
# Procedure: as §1, §2, §3, §4, §5, §6, §7, §8
# [4] = tested on: wild pansy (Viola tricolor L; VIOTR); assay: Postemergence herbicidal activity, greenhouse, visual injury: wild pansy; assay type: in vivo; set-up: key: visual injury, 0–100%: 0 = no injury, 100 = complete kill
# Procedure: as §1, §2, §3, §4, §5, §6, §7, §8
# [5] = tested on: cleavers (Galium aparine L; GALAP); assay: Postemergence herbicidal activity, greenhouse, visual injury: cleavers; assay type: in vivo; set-up: key: visual injury, 0–100%: 0 = no injury, 100 = complete kill
# Procedure: as §1, §2, §3, §4, §5, §6, §7, §8
# [6] = tested on: purple deadnettle (Lamium purpureum L; LAMPU); assay: Postemergence herbicidal activity, greenhouse, visual injury: purple deadnettle; assay type: in vivo; set-up: key: visual injury, 0–100%: 0 = no injury, 100 = complete kill
# Procedure: as §1, §2, §3, §4, §5, §6, §7, §8
# [7] = tested on: corn poppy (Papaver rhoeas L; PAPRH); assay: Postemergence herbicidal activity, greenhouse, visual injury: corn poppy; assay type: in vivo
# Procedure: as §1, §2, §3, §4, §5, §6, §7, §8
# [8] = tested on: wild buckwheat (Polygonum convolvulus L; POLCO); assay: Postemergence herbicidal activity, greenhouse, visual injury: wild buckwheat; assay type: in vivo
# Procedure: as §1, §2, §3, §4, §5, §6, §7, §8
# [9] = tested on: Russian thistle (Salsola iberica L; SASKR); assay: Postemergence herbicidal activity, greenhouse, visual injury: Russian thistle; assay type: in vivo; set-up: key: visual injury, 0–100%: 0 = no injury, 100 = complete kill
# Procedure: as §1, §2, §3, §4, §5, §6, §7, §8
# [10] = tested on: chickweed (Stellaria media L; STEME); assay: Postemergence herbicidal activity, greenhouse, visual injury: chickweed; assay type: in vivo; set-up: key: visual injury, 0–100%: 0 = no injury, 100 = complete kill
# Procedure: as §1, §2, §3, §4, §5, §6, §7, §8
# [11] = tested on: bird's-eye speedwell (Veronica persica L; VERPE); assay: Postemergence herbicidal activity, greenhouse, visual injury: bird's-eye speedwell; assay type: in vivo; set-up: key: visual injury, 0–100%: 0 = no injury, 100 = complete kill
# Procedure: as §1, §2, §3, §4, §5, §6, §7, §8
# [12] = tested on: durum wheat (Triticum durum L; TRZDU); assay: Postemergence herbicidal safening, greenhouse, visual injury: durum wheat; assay type: in vivo
# Procedure: as §1, §2, §3, §4, §5, §6, §7, §8
# [13] = tested on: wheat (Triticum aestivum L; TRZAW); assay: Postemergence herbicidal safening, greenhouse, visual injury: wheat (TRZAW); assay type: in vivo
# Procedure: as §1, §2, §3, §4, §5, §6, §7, §8
# [14] = tested on: barley (HORVW); assay: Postemergence herbicidal safening, greenhouse, visual injury: barley (HORVW)
# [15] = Compound 1 K salt 8.75 g/ha alone
# [16] = Compound 1 K salt 17.5 g/ha alone
# [17] = Compound 1 K salt 35 g/ha alone
structure (smiles),measurement,setting,value
COc1c(Cl)ccc(-c2cc(N)c(Cl)c(C(=O)[O-])n2)c1F.[K+] [1 K salt],TRZAS Ob (Observed values),[1]; [15],5
same,TRZAS Ob (Observed values),[1]; [16],8
same,TRZAS Ob (Observed values),[1]; [17],27
same,HORVS Ob (Observed values),[2]; [15],1.7
same,HORVS Ob (Observed values),[2]; [16],3.3
same,HORVS Ob (Observed values),[2]; [17],6.7
same,MATCH Ob (Observed values),[3]; [15],50
same,MATCH Ob (Observed values),[3]; [16],62
same,MATCH Ob (Observed values),[3]; [17],57
same,VIOTR Ob (Observed values),[4]; [15],20
same,VIOTR Ob (Observed values),[4]; [16],48
same,VIOTR Ob (Observed values),[4]; [17],42
"NC(=O)NS(=O)(=O)c1ccccc1Cl [Compound 2-CBSU, N-(aminocarbonyl)-2-chlorobenzenesulfonamide, reference compound]",TRZAS Ob,[1]; applied alone at 17.5 g/ha,0%
same,TRZAS Ob,[1]; applied alone at 35 g/ha,0%
same,TRZAS Ob,[1]; applied alone at 70 g/ha,0%
same,TRZAS Ob,[1]; applied alone at 140 g/ha,0%
same,HORVS Ob,[2]; applied alone at 17.5 g/ha,0%
same,HORVS Ob,[2]; applied alone at 35 g/ha,0%
same,HORVS Ob,[2]; applied alone at 70 g/ha,0%
same,HORVS Ob,[2]; applied alone at 140 g/ha,0%
same,GALAP Ob,[5]; applied alone at 17.5 g/ha,0%
same,GALAP Ob,[5]; applied alone at 35 g/ha,0%
same,GALAP Ob,[5]; applied alone at 70 g/ha,0%
same,GALAP Ob,[5]; applied alone at 140 g/ha,0%
same,LAMPU Ob (Observed values),[6]; safener 4.4 g/ha alone,0
same,LAMPU Ob (Observed values),[6]; safener 8.8 g/ha alone,0
same,LAMPU Ob (Observed values),[6]; safener 17.5 g/ha alone,0
same,LAMPU Ob (Observed values),[6]; safener 35 g/ha alone,0
same,PAPRH Ob,[7]; applied alone at 17.5 g/ha,0%
same,PAPRH Ob,[7]; applied alone at 35 g/ha,0%
same,PAPRH Ob,[7]; applied alone at 70 g/ha,0%
same,PAPRH Ob,[7]; applied alone at 140 g/ha,0%
same,PAPRH Ob (Observed values),[7]; safener 4.4 g/ha alone,0
same,PAPRH Ob (Observed values),[7]; safener 8.8 g/ha alone,0
same,PAPRH Ob (Observed values),[7]; safener 17.5 g/ha alone,0
same,PAPRH Ob (Observed values),[7]; safener 35 g/ha alone,0
same,POLCO Ob,[8]; applied alone at 17.5 g/ha,0%
same,POLCO Ob,[8]; applied alone at 35 g/ha,0%
same,POLCO Ob,[8]; applied alone at 70 g/ha,0%
same,POLCO Ob,[8]; applied alone at 140 g/ha,0%
same,SASKR Ob,[9]; applied alone at 17.5 g/ha,0%
same,SASKR Ob,[9]; applied alone at 35 g/ha,0%
same,SASKR Ob,[9]; applied alone at 70 g/ha,0%
same,SASKR Ob,[9]; applied alone at 140 g/ha,0%
same,STEME Ob,[10]; applied alone at 17.5 g/ha,0%
same,STEME Ob,[10]; applied alone at 35 g/ha,0%
same,STEME Ob,[10]; applied alone at 70 g/ha,0%
same,STEME Ob,[10]; applied alone at 140 g/ha,0%
same,VERPE Ob,[11]; applied alone at 17.5 g/ha,0%
same,VERPE Ob,[11]; applied alone at 35 g/ha,0%
same,VERPE Ob,[11]; applied alone at 70 g/ha,0%
same,VERPE Ob,[11]; applied alone at 140 g/ha,0%
same,VIOTR Ob,[4]; applied alone at 17.5 g/ha,0%
same,VIOTR Ob,[4]; applied alone at 35 g/ha,0%
same,VIOTR Ob,[4]; applied alone at 70 g/ha,0%
same,VIOTR Ob,[4]; applied alone at 140 g/ha,0%
same,TRZDU Ob (Observed values),[12]; safener 4.4 g/ha alone,0%
same,TRZDU Ob (Observed values),[12]; safener 8.8 g/ha alone,0%
same,TRZDU Ob (Observed values),[12]; safener 17.5 g/ha alone,0%
same,TRZDU Ob (Observed values),[12]; safener 35 g/ha alone,0%
same,TRZAW Ob (Observed values),[13]; safener 4.4 g/ha alone,0%
same,TRZAW Ob (Observed values),[13]; safener 8.8 g/ha alone,0%
same,TRZAW Ob (Observed values),[13]; safener 17.5 g/ha alone,0%
same,TRZAW Ob (Observed values),[13]; safener 35 g/ha alone,0%
same,HORVW Ob (Observed values),[14]; safener 4.4 g/ha alone,0%
same,HORVW Ob (Observed values),[14]; safener 8.8 g/ha alone,0%
same,HORVW Ob (Observed values),[14]; safener 17.5 g/ha alone,0%
same,HORVW Ob (Observed values),[14]; safener 35 g/ha alone,0%
